Data set [1] is described as follows: Kinetic solubility of SCY-078 freebase (MeOH desolvate, amorphous freebase). The class given is physicochemical. Particulars: for Form: residual solid by XRPD; for kinetic solubility (in words): room temperature. On the procedure:
Kinetic Solubility of SCY-078 Freebase: The kinetic solubility of SCY-078 MeOH desolvate and SCY-078 amorphous freebase was evaluated in SGF media, FaSSIF media, FeSSIF media, dextrose buffer (pH 5.5), phosphate buffer (pH 6.0), and phosphate buffer (pH 7.5) at room temperature. First, solid SCY-078 MeOH desolvate or SCY-078 amorphous freebase (˜15 mg) was weighed into a 4-mL vial. Then the relevant media (3.0 mL) was added and the suspensions were stirred on a rolling incubator (25 rpm) at room temperature for 1 hour, 4 hours, and 24 hours respectively. After stirring, 0.5 mL of suspension was centrifuged and filtered (0.45 μm). The residual solids were analyzed by XRPD, and the supernatant was measured by HPLC and pH meter.

Data set [2] in a line: Kinetic solubility of trifluoroacetate Types A and B and HCl Type I (alternative procedure: SGF, FaSSIF and FeSSIF alternative media, acetate pH 5.5, phosphate pH 6.0 alternative media). Particulars: residual solid by XRPD. As for the experimental part:
An alternative media (“FaSSIF alternative media”) was used to study the trifluoroacetate salts (Type A and B) and the HCl Type I salt. More specifically, the media was prepared by weighing 0.17 g of sodium phosphate monobasic (NaH2PO4, anhydrous), 0.021 g of sodium hydroxide, and 0.31 g of sodium chloride into a 50-mL volumetric flask and was dissolve with approximately 48 mL of purified water. The pH was adjusted to exactly 6.5 using 1 M HCl or 1 M NaOH and diluted to volume with purified water. 0.11 g of SIF powder was then added, stirred and sonicated until all the powder was completely dissolved. The solution was equilibrated for 2 hours at RT before use. The solution can be stored at RT for 48 hours or 4° C. for 7 days and should be equilibrated to RT before use
An alternative media (“FeSSIF alternative media”) was used to study the trifluoroacetate salts (Type A and B) and the HCl Type I salt. More specifically, the media was prepared by transferring 0.41 mL of glacial acid and weighing 0.20 g of sodium hydroxide, 0.59 g of sodium chloride into a 50-mL volumetric flask. This was dissolved with approximately 48 mL of purified water. The pH was adjusted to exactly 5.0 using 1 M HCl or 1 M NaOH and diluted to volume with purified water. 0.56 g of SIF powder was added, stirred and sonicated until all the powder is completely dissolved. The solution can be stored at RT for 48 hours or 4° C. for 7 days and should be equilibrated to RT before use.
Acetate Buffer (pH 5.5) Preparation—The acetate buffer (pH 5.5) used for the trifluoroacetate salts (Type A and B) and the HCl Type I salt was prepared by placing 0.60 g sodium acetate (NaC2H3O2.3H2O) in a 100-mL volumetric flask, adding 3 mL of 2 M acetic acid solution, and then adding purified water to volume.
An alternative media (“phosphate (pH 6.0) alternative media”) was used to study the trifluoroacetate salts (Type A and B) and the HCl Type I salt. More specifically, the media was prepared by dissolving 2.72 g of 0.2 M monobasic potassium phosphate (KH2PO4) in purified water, and diluting with purified water t 100 mL. 0.8 g of 0.2 M sodium hydroxide in purified water was diluted with purified water to 100 mL. Then 50 mL of the 0.2 M monobasic potassium phosphate solution was placed in a 200-mL volumetric flask, 5.6 mL of 0.2 M sodium hydroxide solution was added, and then purified water was added to volume.
The trifluoroacetate salts (Type A and B) and the HCl Type I salt were tested using the following alternative procedure. First, 15 mg, 36 mg or 90 mg solid was weighted into a 4-mL plastic tube, and 3 mL of relevant media was added before leaving the suspension on a rolling incubator (25 r/min). For SCF, 90 mg of solid was used. For FaSSIF, acetate buffer (pH 5.5), and phosphate buffer (pH 6.0), 15 mg solid was used. For FeSSIF, 36 mg of solid was used. 1.0 mL aliquot of the suspension was sampled for centrifugation with the supernatant submitted for HPLC and pH measurement and solid for XRPD characterization at 1 hr, 4 hr and/or 24 hrs.
The solubility of trifluoroacetate Type A, Type B and HCl Type I was measured in SGF at ambient temperature. Approximately 90 mg of solid sample was weighted into a 4-mL centrifuge tube, and 3 mL of SGF buffer was added before leaving the suspension on a rolling incubator (25 r/min). 1.0 mL aliquot of the suspension was sampled for centrifugation (10000 rpm, 3 mins) the supernatant was analyzed by HPLC and pH measurement and solid by XRPD characterization at 1 hr, 4 hr and 24 hrs, respectively.
The solubility of trifluoroacetate Type A, Type B and hydrochloride Type I was measured in the FaSSIF alternative media at ambient temperature. Approximately 15 mg of solid sample was weighted into a 4-mL plastic tube, and 3 mL of the media was added before leaving the suspension on a rolling incubator (25 r/min).

Data set [3] is described as follows: Physical and chemical stability of trifluoroacetate Types A and B and HCl Type I for 1, 2, 4 and 8 weeks. The class given is physicochemical. On the procedure:
High Power Liquid Chromatography (HPLC) Method—An Agilent 1260 HPLC with DAD detector was utilized to test solubility or to test purity and stability. […] System suitability was tested by injecting standard solutions five times in each sample sequence, and the relative standard deviation of the peak areas was less than 2%.
Physical and chemical stability evaluation of trifluoroacetate Type A, trifluoroacetate Type B, and HCl Type I was performed at 25° C./60% RH, 40° C./75% RH and 60° C. for 1, 2, 4 and 8 weeks. In the experiments, approximately 20 mg of solid was placed into a 1.5-mL glass vial. The vials were stored under 25° C./60% RH (uncapped), 40° C./75% RH (uncapped) and 60° C. (capped) conditions for 8 weeks. XRPD analysis was then employed to check the crystalline form of the solid, and HPLC was utilized to determine the purity profile at 1, 2, 4 and 8 weeks. […] The solid form change of trifluoroacetate Type A at 2 and 4 weeks was postulated to the air-exposure when the sample was taken out for XRPD characterization.

Data set [4] is described as follows: Chemical and physical stability of SCY-078 salts on storage (25° C./60% RH, 40° C./75% RH, 60° C.). The data set is classed as physicochemical. The source says:
For all compounds tested other than the trifluoroacetate salts (Type A and B) and the HCl Type I and II salts, the conditions and parameters used for measuring solubility are shown in Table 2A and for measuring stability are showing in Table 3A. The conditions and parameters used for the solubility of the trifluoroacetate salts (Type A and B) and the HCl Type I and II salts are shown in Table 2B and for stability are shown in Table 3B.

Where [5] appears, read: 25° C./60% RH (uncapped), 1 week.
Setting [6] is: 25° C./60% RH (uncapped), 2 weeks.
Setting [7] is: 25° C./60% RH (uncapped), 4 weeks.
[8] abbreviates: 25° C./60% RH (uncapped), 8 weeks.
Where [9] appears, read: 40° C./75% RH (uncapped), 1 week.
Where [10] appears, read: 40° C./75% RH (uncapped), 2 weeks.
The mark [11] stands for this setting: 40° C./75% RH (uncapped), 4 weeks.
Setting [12] is: 40° C./75% RH (uncapped), 8 weeks.
Setting [13] is: 25° C./60% RH, open dish, 4 days.

Five molecules from patent US20190153024A1, “NOVEL SALTS AND POLYMORPHS OF SCY-078” (priority 2015, published 2019) can be followed below.

Consider `CC(C)[C@@H](C)[C@@]1(C)CC[C@]2(C)[C@H]3CC[C@@H]4[C@@]5(COC[C@]4(C)[C@@H](OC[C@](C)(N)C(C)(C)C)[C@H](n4ncnc4-c4ccncc4)C5)C3=CC[C@@]2(C)[C@@H]1C(=O)O` [Desolv.], for which the Form result is “NF 1” in data set [1] (FaSSIF, 1 hour); “NF 1” in data set [1] (FaSSIF, 4 hours); “NF 1” in data set [1] (FaSSIF, 24 hours); “NF 1” in data set [1] (FeSSIF, 1 hour); “NF 1” in data set [1] (FeSSIF, 4 hours); “NF 1” in data set [1] (FeSSIF, 24 hours). Moreover, the Form result is “NF 2” in data set [1] (pH 5.5 buffer, 4 hours); “NF 2” in data set [1] (pH 5.5 buffer, 24 hours); “NF 1” in data set [1] (pH 6.0 buffer, 4 hours); “NF 3” in data set [1] (pH 6.0 buffer, 24 hours); “Desolv” in data set [1] (pH 7.5 buffer, 4 hours); “Desolv” in data set [1] (pH 7.5 buffer, 24 hours).

On to `CC(C)[C@@H](C)[C@@]1(C)CC[C@]2(C)[C@H]3CC[C@@H]4[C@@]5(COC[C@]4(C)[C@@H](OC[C@](C)(N)C(C)(C)C)[C@H](n4ncnc4-c4ccncc4)C5)C3=CC[C@@]2(C)[C@@H]1C(=O)O` [SCY-078 MeOH desolvate], for which the “kinetic solubility (in words)” value is on record as “only sparingly soluble” in data set [1] (FaSSIF and pH 5.5, pH 6.0, pH 7.5 buffers); “high solubility” in data set [1] (SGF and FeSSIF). Further, in data set [1] (FeSSIF, FaSSIF, pH 5.5 and 6.0 buffers), the “solid form change during solubility measurement” value was “Solid form change was observed”.

Turning to `CC(C)[C@@H](C)[C@@]1(C)CC[C@]2(C)[C@H]3CC[C@@H]4[C@@]5(COC[C@]4(C)[C@@H](OC[C@](C)(N)C(C)(C)C)[C@H](n4ncnc4-c4ccncc4)C5)C3=CC[C@@]2(C)[C@@H]1C(=O)O.O=C(O)C(F)(F)F` [TFA Type A], the Form change result is “No” in data set [2] (FaSSIF alternative media, 1 hr); “No” in data set [2] (FaSSIF alternative media, 4 hrs); “No” in data set [2] (FaSSIF alternative media, 24 hrs); “No” in data set [2] (SGF, 1 hr); “No” in data set [2] (SGF, 4 hrs); “No” in data set [2] (SGF, 24 hrs). For the same molecule, the Form change entry in data set [2] (acetate buffer (pH 5.5), 4 hrs) is reported as “No”; in data set [2] (acetate buffer (pH 5.5), 24 hrs), “No”. Further, the HPLC purity in data set [3] (setting [5]), in data set [3] (setting [6]), in data set [3] (setting [7]), in data set [3] (setting [8]), in data set [3] (setting [9]) and in data set [3] (setting [10]) was 99.9% throughout. The HPLC purity came out at 99.9% in data set [3] (setting [11]); 99.9% in data set [3] (setting [12]); 99.9% in data set [3] (60° C. (capped), 1 week); 99.9% in data set [3] (60° C. (capped), 2 weeks); 99.9% in data set [3] (60° C. (capped), 4 weeks); 99.9% in data set [3] (60° C. (capped), 8 weeks). The Solid form entry is on record as “Type A” in data set [3] (setting [5]); “Type B” in data set [3] (setting [6]); “Type A + B” in data set [3] (setting [7]); “Type A” in data set [3] (25° C./60% RH (uncapped), 6 weeks); “Type A” in data set [3] (setting [8]); “Type A” in data set [3] (setting [9]). The Solid form entry in data set [3] (setting [10]) is reported as “Type B”; in data set [3] (setting [11]) it was “Type A + B”; in data set [3] (40° C./75% RH (uncapped), 6 weeks), “Type A”; in data set [3] (setting [12]) it was “Type A”; in data set [3] (60° C. (capped), 1 week), “Type A”; in data set [3] (60° C. (capped), 2 weeks), “Type B”. The Solid form entry is reported as “Type A + B” in data set [3] (60° C. (capped), 4 weeks); “Type A” in data set [3] (60° C. (capped), 6 weeks); “Type A” in data set [3] (60° C. (capped), 8 weeks). Also, the “Initial HPLC purity” value in data set [3] (Initial) is listed as 99.9%.

`CC(C)[C@@H](C)[C@@]1(C)CC[C@]2(C)[C@H]3CC[C@@H]4[C@@]5(COC[C@]4(C)[C@@H](OC[C@](C)(N)C(C)(C)C)[C@H](n4ncnc4-c4ccncc4)C5)C3=CC[C@@]2(C)[C@@H]1C(=O)O.O=C(O)CC(O)(CC(=O)O)C(=O)O` [Type M]: the “Impurity % by HPLC” value in data set [4] (setting [13]) is on record as 0.39%; in data set [4] (40° C./75% RH, open dish, 4 days) it was 0.00%; in data set [4] (60° C. closed, 4 days), 0.63%; in data set [4] (Initial) it was 0.42%. Moreover, the “Solid form” value in data set [4] (setting [13]) is on record as “Type M”; in data set [4] (40° C./75% RH, open dish, 4 days, *One peak change was observed), “Type M*”; in data set [4] (60° C. closed, 4 days) it was “Type M”.

In the case of `CC(C)[C@@H](C)[C@@]1(C)CC[C@]2(C)[C@H]3CC[C@@H]4[C@@]5(COC[C@]4(C)[C@@H](OC[C@](C)(N)C(C)(C)C)[C@H](n4ncnc4-c4ccncc4)C5)C3=CC[C@@]2(C)[C@@H]1C(=O)O.O=C(O)CC(O)(CC(=O)O)C(=O)O` [Type S], the “Impurity % by HPLC” value was found to be 0.03% in data set [4] (25° C./60% RH, open dish, 1 week); 0.03% in data set [4] (40° C./75% RH, open dish, 1 week); 0.11% in data set [4] (60° C., closed dish, 1 week); 0.10% in data set [4] (Initial). In addition, the “Solid form” value in data set [4] (25° C./60% RH, open dish, 1 week, **Peak shifts were observed) is recorded as “Type S**”; in data set [4] (40° C./75% RH, open dish, 1 week, **Peak shifts were observed), “Type S**”; in data set [4] (60° C. closed, 1 week) it was “Type S”.
